Test results: article PMC12028158, “Synthesis and In Vitro Evaluation of the Anticancer Effect of Novel Phosphonium Vindoline Derivatives” (International Journal of Molecular Sciences, 2025)

Assays:
Assay type in all cases: cell-based
[1] = test system: 60 human tumor cell lines (NCI60); experiment: NCI60 one-dose screen, overall mean; conditions: one-dose; for activity at 10 µM: Homo sapiens, read-out: Mean growth percent
Ovarian Cancer panel = experiment: NCI60 five-dose screen, panel mean; conditions: Homo sapiens; mean over Ovarian Cancer panel; read-out: Mean GI50
CNS Cancer panel = experiment: NCI60 five-dose screen, panel mean; conditions: Homo sapiens; mean over CNS Cancer panel; read-out: Mean GI50
SF-295 = experiment: NCI60 one-dose screen; conditions: Homo sapiens; SF-295, 10 μM, one-dose; read-out: Growth percent
OVCAR-4 [2] = experiment: NCI60 one-dose screen; conditions: Homo sapiens; OVCAR-4, 10 μM, one-dose; read-out: Growth percent
MOLT-4 = experiment: NCI60 five-dose screen; conditions: Homo sapiens; MOLT-4, Leukemia, five-dose; read-out: GI50
NCI-H322M = experiment: NCI60 one-dose screen; conditions: Homo sapiens, 10 μM, one-dose, read-out: Growth percent
T-47D = experiment: NCI60 five-dose screen; conditions: Homo sapiens, T47D; T-47D, Breast Cancer, five-dose; read-out: GI50
M14 = experiment: NCI60 one-dose screen; conditions: Homo sapiens; M14, 10 μM, one-dose; read-out: Growth percent
OVCAR-3 = experiment: NCI60 one-dose screen; conditions: Homo sapiens; OVCAR-3, 10 μM, one-dose; read-out: Growth percent
NCI-H522 [3] = experiment: NCI60 one-dose screen; conditions: Homo sapiens; NCI-H522, 10 μM, one-dose; read-out: Growth percent
HT29 = experiment: NCI60 five-dose screen; conditions: Homo sapiens, HT-29; HT29, Colon Cancer, five-dose; read-out: GI50
SK-MEL-28 = experiment: NCI60 one-dose screen; conditions: Homo sapiens; SK-MEL-28, 10 μM, one-dose; read-out: Growth percent
HOP-62 = experiment: NCI60 five-dose screen; conditions: Homo sapiens; HOP-62, Non-small Cell Lung Cancer, five-dose; read-out: GI50
HCT-15 [4] = experiment: NCI60 five-dose screen; conditions: Homo sapiens; HCT-15, Colon Cancer, five-dose; read-out: GI50
EKVX = experiment: NCI60 one-dose screen; conditions: Homo sapiens, 10 μM, one-dose, read-out: Growth percent
RXF 393 = experiment: NCI60 one-dose screen; conditions: Homo sapiens; RXF 393, 10 μM, one-dose; read-out: Growth percent
ACHN [5] = experiment: NCI60 five-dose screen; conditions: Homo sapiens, Renal Cancer, five-dose, read-out: GI50
Breast Cancer panel = experiment: NCI60 five-dose screen, panel mean; conditions: Homo sapiens; mean over Breast Cancer panel; read-out: Mean GI50
SW-620 = experiment: NCI60 five-dose screen; conditions: Homo sapiens; SW-620, Colon Cancer, five-dose; read-out: GI50
CAKI-1 = experiment: NCI60 one-dose screen; conditions: Homo sapiens; CAKI-1, 10 μM, one-dose; read-out: Growth percent
NCI-H522 [6] = experiment: NCI60 five-dose screen; conditions: Homo sapiens; NCI-H522, Non-small Cell Lung Cancer, five-dose; read-out: GI50
SK-MEL-5 = experiment: NCI60 five-dose screen; conditions: Homo sapiens; SK-MEL-5, Melanoma, five-dose; read-out: GI50
LOX IMVI = experiment: NCI60 five-dose screen; conditions: Homo sapiens, Melanoma, five-dose, read-out: GI50
ACHN [7] = experiment: NCI60 one-dose screen; conditions: Homo sapiens, 10 μM, one-dose, read-out: Growth percent
IGROV1 [8] = experiment: NCI60 one-dose screen; conditions: Homo sapiens, IGROV-1; IGROV1, 10 μM, one-dose; read-out: Growth percent
HCT-15 [9] = experiment: NCI60 one-dose screen; conditions: Homo sapiens; HCT-15, 10 μM, one-dose; read-out: Growth percent
NCI/ADR-RES = experiment: NCI60 one-dose screen; conditions: Homo sapiens, 10 μM, one-dose, read-out: Growth percent
HCT-116 [10] = experiment: NCI60 one-dose screen; conditions: Homo sapiens; HCT-116, 10 μM, one-dose; read-out: Growth percent
IGROV1 [11] = experiment: NCI60 five-dose screen; conditions: Homo sapiens, IGROV-1; IGROV1, Ovarian Cancer, five-dose; read-out: GI50
OVCAR-4 [12] = experiment: NCI60 five-dose screen; conditions: Homo sapiens; OVCAR-4, Ovarian Cancer, five-dose; read-out: GI50
OVCAR-8 = experiment: NCI60 one-dose screen; conditions: Homo sapiens; OVCAR-8, 10 μM, one-dose; read-out: Growth percent
Renal Cancer panel = experiment: NCI60 five-dose screen, panel mean; conditions: Homo sapiens; mean over Renal Cancer panel; read-out: Mean GI50
BT-549 = experiment: NCI60 one-dose screen; conditions: Homo sapiens; BT-549, 10 μM, one-dose; read-out: Growth percent
HL-60(TB) = experiment: NCI60 one-dose screen; conditions: Homo sapiens; HL-60(TB), 10 μM, one-dose; read-out: Growth percent
HCT-116 [13] = experiment: NCI60 five-dose screen; conditions: Homo sapiens; HCT-116, Colon Cancer, five-dose; read-out: GI50
Leukemia panel = experiment: NCI60 five-dose screen, panel mean; conditions: Homo sapiens; mean over Leukemia panel; read-out: Mean GI50
MDA-MB-435 = experiment: NCI60 five-dose screen; conditions: Homo sapiens; MDA-MB-435, Melanoma, five-dose; read-out: GI50
DU-145 = experiment: NCI60 one-dose screen; conditions: Homo sapiens; DU-145, 10 μM, one-dose; read-out: Growth percent
NCI-H23 = experiment: NCI60 one-dose screen; conditions: Homo sapiens; NCI-H23, 10 μM, one-dose; read-out: Growth percent
CCRF-CEM = experiment: NCI60 five-dose screen; conditions: Homo sapiens, Leukemia, five-dose, read-out: GI50
Colon Cancer panel = experiment: NCI60 five-dose screen, panel mean; conditions: Homo sapiens; mean over Colon Cancer panel; read-out: Mean GI50
SK-OV-3 = experiment: NCI60 five-dose screen; conditions: Homo sapiens; SK-OV-3, Ovarian Cancer, five-dose; read-out: GI50
HCC-2998 = experiment: NCI60 one-dose screen; conditions: Homo sapiens; HCC-2998, 10 μM, one-dose; read-out: Growth percent
UACC-62 = experiment: NCI60 five-dose screen; conditions: Homo sapiens; UACC-62, Melanoma, five-dose; read-out: GI50
MALME-3M = experiment: NCI60 five-dose screen; conditions: Homo sapiens; MALME-3M, Melanoma, five-dose; read-out: GI50

CC[C@]12C=CCN3CC[C@@]4(c5ccc(OC)cc5N(C)[C@H]4[C@@](O)(C(=O)OC)[C@@H]1OC(=O)CCC[P+](c1cc(C)c(OC)c(C)c1)(c1cc(C)c(OC)c(C)c1)c1cc(C)c(OC)c(C)c1)[C@@H]32 [9e]
activity at 10 µM ([1]; mean over 60 cell lines, 10 μM): -97.1% | Mean growth percent ([1]; mean over 60 cell lines, 10 μM): −97.13% | average reduction / average cell death ([1]; 10 µM, average over cell lines): more than 70% | GI50 (Ovarian Cancer panel): 940 nM | GI50 (CNS Cancer panel): 180 nM | activity at 10 µM (SF-295): -98.6% | activity at 10 µM (OVCAR-4 [2]): -98.7% | GI50 (MOLT-4): 164 nM | activity at 10 µM (NCI-H322M): -98.1% | GI50 (T-47D): 105 nM | activity at 10 µM (M14): -97.3% | activity at 10 µM (OVCAR-3): -99% | activity at 10 µM (NCI-H522 [3]): -98.4% | GI50 (HT29): 151 nM | activity at 10 µM (SK-MEL-28): -98.2% | GI50 (HOP-62): 173 nM | GI50 (HCT-15 [4]): 760 nM | activity at 10 µM (EKVX): -98.2% | activity at 10 µM (RXF 393): -98.6% | GI50 (ACHN [5]): 319 nM | GI50 (Breast Cancer panel): 140 nM | GI50 (SW-620): 245 nM | activity at 10 µM (CAKI-1): -97% | GI50 (NCI-H522 [6]): 198 nM | GI50 (SK-MEL-5): 138 nM | GI50 (LOX IMVI): 145 nM | activity at 10 µM (ACHN [7]): -96.5% | activity at 10 µM (IGROV1 [8]): -99% | activity at 10 µM (HCT-15 [9]): -93.9% | activity at 10 µM (NCI/ADR-RES): -87.2% | activity at 10 µM (HCT-116 [10]): -93% | GI50 (IGROV1 [11]): 193 nM | GI50 (OVCAR-4 [12]): 271 nM | activity at 10 µM (OVCAR-8): -95.5% | GI50 (Renal Cancer panel): 440 nM | activity at 10 µM (BT-549): -98% | activity at 10 µM (HL-60(TB)): -97.2% | GI50 (HCT-116 [13]): 223 nM | GI50 (Leukemia panel): 110 nM | GI50 (MDA-MB-435): 231 nM | activity at 10 µM (DU-145): -96.8% | activity at 10 µM (NCI-H23): -98.1% | GI50 (CCRF-CEM): 114 nM | GI50 (Colon Cancer panel): 240 nM | GI50 (SK-OV-3): 232 nM | activity at 10 µM (HCC-2998): -97.9% | GI50 (UACC-62): 160 nM | GI50 (MALME-3M): 288 nM

CC[C@]12C=CCN3CC[C@@]4(c5ccc(OC)cc5N(C)[C@H]4[C@@](O)(C(=O)OC)[C@@H]1OC(=O)CCC[P+](c1ccccc1)(c1ccccc1)c1ccccc1)[C@@H]32 [compound 3, reference compound]
activity at 10 µM ([1]; mean over 60 cell lines, 10 μM): 3.13% | GI50 (Ovarian Cancer panel): 7780 nM | GI50 (CNS Cancer panel): 760 nM | activity at 10 µM (SF-295): 23.3% | activity at 10 µM (OVCAR-4 [2]): -3.58% | GI50 (MOLT-4): 614 nM | activity at 10 µM (NCI-H322M): 35.6% | GI50 (T-47D): 192 nM | activity at 10 µM (M14): 17.7% | activity at 10 µM (OVCAR-3): -2.49% | activity at 10 µM (NCI-H522 [3]): -35.4% | GI50 (HT29): 266 nM | activity at 10 µM (SK-MEL-28): 20.9% | GI50 (HOP-62): 1370 nM | GI50 (HCT-15 [4]): 8500 nM | activity at 10 µM (EKVX): 10.3% | activity at 10 µM (RXF 393): 28.9% | GI50 (ACHN [5]): 4530 nM | GI50 (Breast Cancer panel): 450 nM | GI50 (SW-620): 1200 nM | activity at 10 µM (CAKI-1): 52.2% | GI50 (NCI-H522 [6]): 216 nM | GI50 (SK-MEL-5): 766 nM | GI50 (LOX IMVI): 858 nM | activity at 10 µM (ACHN [7]): 89.9% | activity at 10 µM (IGROV1 [8]): -0.06% | activity at 10 µM (HCT-15 [9]): 101% | activity at 10 µM (NCI/ADR-RES): 100% | activity at 10 µM (HCT-116 [10]): 8.72% | GI50 (IGROV1 [11]): 237 nM | GI50 (OVCAR-4 [12]): 469 nM | activity at 10 µM (OVCAR-8): 3.13% | GI50 (Renal Cancer panel): 3520 nM | activity at 10 µM (BT-549): 11% | activity at 10 µM (HL-60(TB)): -53.1% | GI50 (HCT-116 [13]): 965 nM | GI50 (Leukemia panel): 360 nM | GI50 (MDA-MB-435): 278 nM | activity at 10 µM (DU-145): 18% | activity at 10 µM (NCI-H23): -8.66% | GI50 (CCRF-CEM): 487 nM | GI50 (Colon Cancer panel): 1690 nM | GI50 (SK-OV-3): 894 nM | activity at 10 µM (HCC-2998): -22.5% | GI50 (UACC-62): 222 nM | GI50 (MALME-3M): 283 nM
